Test results as given in ChEMBL document CHEMBL1141675, “QSAR modeling of the interaction of flavonoids with GABA(A) receptor” (Eur J Med Chem, 2008).

Assay: Binding affinity to GABAA receptor
Parameters: unit not given here

SMILES | logKi
O=c1cc(-c2cccc([N+](=O)[O-])c2)oc2ccccc12 | -0.545
O=c1cc(-c2ccccc2)oc2c(I)c(O)c(I)c(O)c12 | 0
O=c1cc(-c2cccc(Br)c2)oc2ccc(Br)cc12 | -1.72
O=c1cc(-c2cccc(Br)c2)oc2ccc(F)cc12 | -0.627
O=c1cc(-c2ccccc2)oc2cc(O)ccc12 | 0.623
O=c1cc(-c2cccc(O)c2)oc2ccc(F)cc12 | 0.4
O=c1cc(-c2ccccc2)oc2ccc(Br)cc12 | -1.16
O=c1cc(-c2ccccc2O)oc2ccccc12 | -0.678
O=c1cc(-c2ccccc2O)oc2ccc(O)cc12 | -1.47
COc1c(O)c(OC)c2oc(-c3ccccc3O)cc(=O)c2c1O | -2.21
O=c1cc(-c2ccccc2F)oc2ccc(Cl)cc12 | -0.38
O=c1cc(-c2ccc([N+](=O)[O-])cc2)oc2ccc(Br)cc12 | -0.699
O=c1cc(-c2ccccc2)oc2ccc(F)cc12 | 0.653
COc1c(O)cc2oc(-c3ccccc3)cc(=O)c2c1O | -0.051
O=c1cc(-c2ccccc2)oc2ccccc12 | 0
COc1cccc(-c2cc(=O)c3cc(Br)ccc3o2)c1 | -0.215
COc1cc(O)c2c(=O)cc(-c3ccccc3)oc2c1 | 1.7
COc1cccc(-c2cc(=O)c3ccccc3o2)c1 | 0.38
Cc1cccc(-c2cc(=O)c3ccccc3o2)c1 | 1
COc1ccc2oc(-c3cccc(Br)c3)cc(=O)c2c1 | 0
Cc1cccc(-c2cc(=O)c3cc(C)ccc3o2)c1 | -0.682
O=c1cc(-c2cccc(Cl)c2)oc2ccc(F)cc12 | -0.701
O=c1cc(-c2cccc(F)c2)oc2ccc(Cl)cc12 | -0.932
O=c1cc(-c2ccccc2[N+](=O)[O-])oc2ccc(Br)cc12 | -0.68
O=c1cc(-c2ccccc2)oc2c(Br)c(O)c(Br)c(O)c12 | -0.155
COc1c(O)c(OC)c2oc(-c3ccccc3)cc(=O)c2c1O | -0.699

SMILES | logKi
COc1c(O)cc2oc(-c3ccccc3O)cc(=O)c2c1O | -1.42
Cc1ccc2oc(-c3cccc([N+](=O)[O-])c3)cc(=O)c2c1 | -2.25
O=c1cc(-c2cccc([N+](=O)[O-])c2)oc2ccc(Cl)cc12 | -2.1
COc1cc2oc(-c3ccc(O)cc3)cc(=O)c2c(O)c1OC | 1.36
O=c1cc(-c2cccc([N+](=O)[O-])c2)oc2ccc(F)cc12 | -0.745
COc1ccc2oc(-c3ccccc3)cc(=O)c2c1 | -0.066
O=c1cc(-c2cccc(Br)c2)oc2ccc(Cl)cc12 | -1.64
O=c1cc(-c2ccc(F)cc2)oc2ccc(Cl)cc12 | -0.742
O=c1cc(-c2cccc(Br)c2)oc2ccc(O)cc12 | 0
O=c1cc(-c2cccc(O)c2)oc2ccc(Cl)cc12 | -0.07
O=c1cc(-c2ccccc2)oc2ccc([N+](=O)[O-])cc12 | -0.561
Cc1ccc2oc(-c3cccc(Br)c3)cc(=O)c2c1 | -1.89
O=c1cc(-c2cccc(Br)c2)oc2ccccc12 | -0.384
O=c1cc(-c2cccc([N+](=O)[O-])c2)oc2ccc([N+](=O)[O-])cc12 | -1.58
O=c1cc(-c2cccc([N+](=O)[O-])c2)oc2ccc(Br)cc12 | -3
COc1cccc(-c2cc(=O)c3cc(Cl)ccc3o2)c1 | -0.072
COc1ccc2oc(-c3ccccc3N)cc(=O)c2c1 | 0.544
O=c1cc(-c2ccccc2)oc2cc(O)cc(O)c12 | 0.477
O=c1cc(-c2ccccc2O)oc2ccc3ccccc3c12 | -1.57
COc1ccccc1-c1cc(=O)c2ccccc2o1 | 1.51
O=c1cc(-c2ccc(O)cc2)oc2cc(O)cc(O)c12 | 0.602
O=c1cc(-c2ccc(F)cc2)oc2ccc(F)cc12 | 0.398
COc1ccccc1-c1cc(=O)c2cc(O)ccc2o1 | 0.976
O=c1cc(-c2cccc(Cl)c2)oc2ccc(Br)cc12 | -1.77
O=c1cc(-c2cccc(F)c2)oc2ccccc12 | 0.55
O=c1cc(-c2ccccc2Cl)oc2cc(O)cc(O)c12 | 0.903

SMILES | logKi
COc1c(O)cc(O)c2c(=O)cc(-c3ccccc3)oc12 | 0.182
O=c1cc(-c2ccccc2O)oc2cc(O)cc(O)c12 | -1.12
O=c1cc(-c2ccccc2)oc2ccc(Cl)cc12 | -0.785
O=c1cc(-c2ccccc2)oc2ccc(O)cc12 | 0.422
COc1cccc(-c2cc(=O)c3cc(F)ccc3o2)c1 | 0.398
COc1c(O)cc2oc(-c3ccc(O)cc3)cc(=O)c2c1O | 0
O=c1cc(-c2ccccc2O)oc2cc(O)ccc12 | -0.252
O=c1cc(-c2cccc(Br)c2)oc2ccc([N+](=O)[O-])cc12 | -1.6
O=c1cc(-c2cccc(O)c2)oc2ccc(Br)cc12 | -0.22
O=c1cc(-c2ccc(Br)cc2)oc2ccc([N+](=O)[O-])cc12 | -1.6
O=c1cc(-c2cccc(F)c2)oc2ccc(F)cc12 | -0.036
COc1ccc(-c2cc(=O)c3cc(Cl)ccc3o2)cc1 | 0.097
COc1cccc(O)c1-c1cc(=O)c2c(O)c(OC)c(OC)c(OC)c2o1 | -0.444
O=c1cc(-c2cccc(Cl)c2)oc2ccccc12 | -0.212
O=c1cc(-c2ccccc2F)oc2ccc(Br)cc12 | -0.424
O=c1cc(-c2ccccc2F)oc2cc(O)cc(O)c12 | 0.903
O=c1cc(-c2cccc(F)c2)oc2ccc(Br)cc12 | -1.38
Cc1cccc(-c2cc(=O)c3cc(Br)ccc3o2)c1 | -0.812
O=c1cc(-c2ccccc2)oc2cc(O)c(O)c(O)c12 | 0.747
Cc1ccc2oc(-c3ccccc3)cc(=O)c2c1 | -0.903
COc1cc2oc(-c3ccc(O)c(O)c3)cc(=O)c2c(O)c1OC | 2.3
O=c1cc(-c2cccc(Cl)c2)oc2ccc(Cl)cc12 | -1.64
O=c1cc(-c2ccc(F)cc2)oc2ccc(Br)cc12 | -0.939
O=c1cc(-c2ccc(F)cc2)oc2ccccc12 | 0.556
COc1ccc(-c2cc(=O)c3cc(Br)ccc3o2)cc1 | 0.322
O=c1c(O)c(-c2ccc(O)cc2)oc2cc(O)cc(O)c12 | 1.97
